Measurements published in article PMC6009919, “Newer human inosine 5′-monophosphate dehydrogenase 2 (hIMPDH2) inhibitors as potential anticancer agents” (Journal of Enzyme Inhibition and Medicinal Chemistry, 2018).
Where a name gives a salt, the structure may show the parent alone. Read-outs that look alike come from different tables or passages of the source.

Columns and labels:
[1] = molecular target: T1, hIMPDH2 (Homo sapiens, UniProt P12268); assay: In vitro hIMPDH2 inhibition assay; type: biochemical; conditions: for inhibition at 10 µM / hIMPDH2 enzyme % Inhibition: ± SD, at 10 µM; for inhibition at 10 µM: read-out: hIMPDH2 enzyme % Inhibition; for IC50: triplicate, determined when inhibition >70% at 10 µM, read-out: hIMPDH2 enzyme IC50 (µM) ± SD
T1 construct: purchased NovoCIB SAS (Lyon, France)
Method: The enzyme (hIMPDH2) was purchased from NovoCIB SAS (Lyon, France). […] The assay was performed in a 200 µl final volume in 96-well UV plates (Tarsons, 980040, Tarsons Products Pvt. Ltd., Kolkata, India) with a reaction buffer composed of 100 mM Tris–HCl (pH 8.6), 100 mM KCl and 5 mM DTT, 4% v/v DMSO plus or minus test compound and 0.15 mU of purified hIMPDH2 enzyme per well (from 1.5 mg/ml stock solution). […] The reaction was initiated by the addition of (substrate buffer) 0.2 mM of IMP and 0.2 mM of NAD^+ and the assay was allowed to proceed at 37 °C for 45 min. The generated NADH was measured by reading the absorbance at 340 nm. […] The MPA (10 µM) was used as a positive control and DMSO as a vehicle control. […] Enzyme inhibition and IC50 values were expressed in % inhibition and μM, respectively.

[2] = system: MDA-MB-231 (breast adenocarcinoma); assay: Cell viability (MTT assay), MDA-MB-231; type: cell-based; conditions: for IC50: MTT, 48-h incubation, triplicate, read-out: Cytotoxicity IC50 (μM) ± SD, MDA-MB-231
Method: (§1) Cancer cell lines such as MDA-MB-231 (breast adenocarcinoma), DU145 (prostate carcinoma) and U87 MG (glioblastoma astrocytoma) were purchased from National Centre for Cell Sciences (NCCS) (Pune, India). Cytotoxic activity of compounds (>80% hIMPDH2 inhibition at 10 μM) was evaluated using colorimetric MTT assay on the above-mentioned cell lines. Briefly, cells were grown in DMEM media supplemented with foetal bovine serum (FBS) 10% and penicillin–streptomycin (50 U/ml, 50 µg/ml) at 37 °C, CO2 (5%) and air (95%). Logarithmically, growing cells were seeded using 96-well plate at different concentrations of the test compounds ranging from 0.01 to 100 μM (seeding density: MDA-MB-231: 10,000 cells/well, DU145: 8000 cells/well, U87 MG: 5000 cells/well). […] Each dilution of test compound was added in triplicate. Following 48-h incubation with the compounds, cells were incubated with MTT reagent (5 mg/ml) for 4 h, and then 100 μl of DMSO was added to dissolve formazan crystals. The absorbance was then measured at 540 nm and 630 nm (background scan) using EPOCH 2 BioTek microplate reader. The IC50 values for the tested compounds were calculated and expressed in μM using mean of triplicate readings.

[3] = system: DU145 (prostate carcinoma); assay: Cell viability (MTT assay), DU145; type: cell-based; conditions: for IC50: MTT, 48-h incubation, triplicate, read-out: Cytotoxicity IC50 (μM) ± SD, DU145
Method: as §1

[4] = system: U87 MG (glioblastoma astrocytoma); assay: Cell viability (MTT assay), U87 MG; type: cell-based; conditions: for IC50: MTT, 48-h incubation, triplicate, read-out: Cytotoxicity IC50 (μM) ± SD, U87 MG
Method: as §1

[5] = hPBMC proliferation assay; type: cell-based; conditions: human, human peripheral blood mononuclear cells (hPBMC), read-out: % cell viability
Source text: Higher lipophilicity and masking of the –COOH in 1 could possibly be responsible for this observation since usually acids are prevented from entering in the CNS.[35] […] The possibility of the title compounds behaving as prodrugs could be minute due to the difficulty in hydrolysing the amide linkage inside cells and release of the active form “MPA”.

SMILES: COc1c(C)c2c(c(O)c1C/C=C(\C)CCC(=O)O)C(=O)OC2 [Compound 1, Mycophenolic acid, reference compound]
- inhibition at 10 µM [1]: 99.9 ± 1.2%
- IC50 ([2]; Homo sapiens, MDA-MB-231): 4.38 ± 0.06 µM
- IC50 ([3]; Homo sapiens, DU-145): 2.94 ± 0.09 µM
- IC50 ([4]; Homo sapiens, U-87 MG): 10.7 ± 0.21 µM
- viability [5]: 63%

SMILES: COc1c(C)c2c(c(O)c1C/C=C(\C)CCC(=O)N[C@@H](C)c1ccccc1)C(=O)OC2 [Compound 14, (S)(E)-6–(4-hydroxy-6-methoxy-7-methyl-3-oxo-1,3-dihydroisobenzofuran-5-yl)-4-methyl-N-(1-phenylethyl)hex-4-enamide]
- inhibition at 10 µM [1]: 59.1 ± 1.91%

SMILES: COc1c(C)c2c(c(O)c1C/C=C(\C)CCC(=O)N[C@H](C)c1ccccc1)C(=O)OC2 [Compound 15]
- hIMPDH2 enzyme % Inhibition [1]: 73.94 ± 2.84%
- inhibition at 10 µM [1]: > 70%
- IC50 [1]: 0.82 ± 0.32 µM

SMILES: COc1c(C)c2c(c(O)c1C/C=C(\C)CCC(=O)NCc1ccccc1Cl)C(=O)OC2 [Compound 16]
- hIMPDH2 enzyme % Inhibition [1]: 72.04 ± 1.11%
- inhibition at 10 µM [1]: > 70%
- IC50 [1]: 0.73 ± 0.06 µM

SMILES: COc1c(C)c2c(c(O)c1C/C=C(\C)CCC(=O)NCc1ccco1)C(=O)OC2 [Compound 17]
- hIMPDH2 enzyme % Inhibition [1]: 67.18 ± 4.16%

SMILES: COc1ccc(CNC(=O)CC/C(C)=C/Cc2c(O)c3c(c(C)c2OC)COC3=O)cc1 [Compound 18]
- inhibition at 10 µM [1]: 96.1 ± 2.51%
- IC50 [1]: 0.33 ± 0.11 µM
- IC50 ([2]; Homo sapiens, MDA-MB-231): 2.42 ± 0.11 µM
- IC50 ([3]; Homo sapiens, DU-145): 1.8 ± 0.07 µM
- IC50 ([4]; Homo sapiens, U-87 MG): 5.26 ± 0.18 µM

SMILES: COc1c(C)c2c(c(O)c1C/C=C(\C)CCC(=O)NCc1ccc(C)cc1)C(=O)OC2 [Compound 19]
- inhibition at 10 µM [1]: 73.4 ± 3.62%
- IC50 [1]: 0.6 ± 0.13 µM

SMILES: COc1c(C)c2c(c(O)c1C/C=C(\C)CCC(=O)NCc1ccc(Cl)cc1)C(=O)OC2 [Compound 20]
- hIMPDH2 enzyme % Inhibition [1]: 81.36 ± 1.95%
- IC50 [1]: 0.57 ± 0.11 µM
- IC50 [2]: 4.1 ± 0.23 µM
- IC50 [3]: 2.69 ± 0.11 µM
- IC50 [4]: 7.31 ± 0.17 µM

SMILES: COc1c(C)c2c(c(O)c1C/C=C(\C)CCC(=O)NCc1ccncc1)C(=O)OC2 [Compound 21]
- inhibition at 10 µM [1]: 57.4 ± 1.02%

SMILES: COc1c(C)c2c(c(O)c1C/C=C(\C)CCC(=O)NCc1ccccn1)C(=O)OC2 [Compound 22]
- inhibition at 10 µM [1]: 59.4 ± 1.81%

SMILES: COc1c(C)c2c(c(O)c1C/C=C(\C)CCC(=O)NCc1ccccc1C)C(=O)OC2 [Compound 23]
- inhibition at 10 µM [1]: 84 ± 2.13%
- IC50 [1]: 0.5 ± 0.18 µM
- IC50 ([2]; Homo sapiens, MDA-MB-231): 0.77 ± 0.04 µM
- potency relative to MPA, MDA-MB-231 ([2]; fold vs MPA): five-fold more potent than MPA
- IC50 ([3]; Homo sapiens, DU-145): 1.28 ± 0.04 µM
- IC50 ([4]; Homo sapiens, U-87 MG): 4.66 ± 0.07 µM

SMILES: COc1c(C)c2c(c(O)c1C/C=C(\C)CCC(=O)NCCCCc1ccccc1)C(=O)OC2 [Compound 24]
- hIMPDH2 enzyme % Inhibition [1]: 93.62 ± 3.17%
- IC50 [1]: 0.48 ± 0.02 µM
- IC50 ([2]; Homo sapiens, MDA-MB-231): 1.46 ± 0.07 µM
- IC50 ([3]; Homo sapiens, DU-145): 1.09 ± 0.02 µM
- potency relative to MPA, DU145 ([3]; fold vs MPA): three-fold higher potency than MPA
- IC50 ([4]; Homo sapiens, U-87 MG): 3.35 ± 0.09 µM
- potency relative to MPA, U87 MG ([4]; fold vs MPA): three-fold more active than MPA
- viability [5]: 65%

SMILES: COc1c(C)c2c(c(O)c1C/C=C(\C)CCC(=O)NCc1ccc3c(c1)OCO3)C(=O)OC2 [Compound 25]
- hIMPDH2 enzyme % Inhibition [1]: 87.09 ± 4.54%
- IC50 [1]: 0.51 ± 0.08 µM
- IC50 [2]: 1.86 ± 0.16 µM
- IC50 [3]: 2.53 ± 0.15 µM
- IC50 [4]: 8.16 ± 0.27 µM

SMILES: COc1c(C)c2c(c(O)c1C/C=C(\C)CCC(=O)NCCN1CCOCC1)C(=O)OC2 [Compound 26]
- inhibition at 10 µM [1]: 36 ± 3.86%

SMILES: COc1cccc(NC(=O)CC/C(C)=C/Cc2c(O)c3c(c(C)c2OC)COC3=O)c1 [Compound 27, (E)-6–(4-hydroxy-6-methoxy-7-methyl-3-oxo-1,3-dihydroisobenzofuran-5-yl)-N-(3-methoxyphenyl)-4-methylhex-4-enamide]
- inhibition at 10 µM [1]: 30.8 ± 2.82%

SMILES: COc1ccc(NC(=O)CC/C(C)=C/Cc2c(O)c3c(c(C)c2OC)COC3=O)cc1 [Compound 28]
- hIMPDH2 enzyme % Inhibition [1]: 54.84 ± 1.15%

SMILES: COc1cccc2c1C(=O)c1c(O)c3c(c(O)c1C2=O)C[C@@](O)(C(=O)CO)C[C@@H]3O[C@H]1C[C@H](N)[C@H](O)[C@H](C)O1 [Doxorubicin HCl, reference compound]
- IC50 ([2]; Homo sapiens, MDA-MB-231): 0.54 ± 0.08 µM
- IC50 ([3]; Homo sapiens, DU-145): 0.21 ± 0.06 µM
- IC50 ([4]; Homo sapiens, U-87 MG): 0.11 ± 0.02 µM
